Results on 1 molecule are retold here after patent US20260015436A1, “ANTIBODIES FOR CHELATED RADIONUCLIDES” (Hoffmann-La Roche Inc., priority 2018, published 2026).

In the data set the test system is BxPC3 tumors. Kind of data set: Protocol 103: efficacy of CEA-PRIT, s.c. BxPC3 tumors. Format: in vivo, SCID mice. As to conditions: result in words. How it is done: Step 1: Administration of a BsAb (i.v. or i.p.): The BsAb used in the studies binds Pb-DOTAM with high affinity and targets the tumor e.g. via CEA.
Step 2: Administration of CA (i.v. or i.p.): To allow efficient tumor accumulation of ^212Pb-DOTAM, circulating BsAb needs to be neutralized in the blood using a CA that blocks ^212Pb-DOTAM binding to unbound BsAb, without penetrating into the tumor and consequently blocking the pretargeted sites. The CA is administered once the BsAb has accumulated to a sufficient degree in the tumor, generally after 4-10 days. […]
The body weight (BW) of the study animals was measured at least 3 times per week, with additional measurements as needed depending on the health status. […]
where d indicates treatment day and 0 the baseline value. […] Tumor regression (TR) was calculated according to: […]
This study assessed the efficacy of CEA-PRIT using the CEA-DOTAM BsAb for treatment of s.c. BxPC3 tumors in mice. The therapy was administered either as a single treatment with 10 or 30 μCi of ^212Pb-DOTAM, or in three repeated cycles for each of the two radioactivity levels. […] Biodistributions were performed after the first and second cycle to confirm ^212Pb-DOTAM targeting and clearance, and the treatment efficacy was assessed in terms of TGI, TR, and survival. […]

Take `NC(=O)CN1CCN(CC(N)=O)CCN(CC(N)=O)CCN(CC(N)=O)CC1.[212Pb+2]` [^212Pb-DOTAM]: the “radiation-induced toxicity / tolerability” value is, setting by setting: (10 μCi) “safe radioactivity level”; (30 μCi) “approaching the maximum tolerated activity”.
